Measured values from paper PMC11106456, “Increased Vasoactive Intestinal Peptide (VIP) in polycystic ovary syndrome patients undergoing IVF” (Frontiers in Endocrinology, 2024).

Experiment: Biological stability of VIP in follicular fluid (ELISA, during defrosting)
Type: in vitro ADME
Details: human follicular fluid samples from IVF patients, stored at -80°C, measured during defrosting process; read-out sandwich ELISA (450 nm); p<0.05; Supplementary Figure 1
Method: FF was obtained after oocyte retrieval during IVF according to the following procedure. The follicular fluid aspirated from each patient was pooled in conical bottomed 15 ml polypropylene tubes and centrifugated at 1000 g for 3 minutes at 21°C. The supernatant was collected, transported to the laboratory and stored at -80°C until further analysis.
The enzyme-linked immunosorbent assay (ELISA) used to quantify VIP in follicular samples was based on the principle of sandwich enzyme immunoassay. The quantification was performed following manufacturer’s protocol of ELISA kit (ELK Biotechnology CO., Ltd). Briefly, the microtiter plate provided has been pre-coated with an antibody specific for VIP. 100 μL of standards and samples were added to the appropriate microtiter plate wells and incubated for 80 minutes at 37°C. After the wash, 100 μl/well of biotin-conjugated antibody solution was added and incubated for 50 minutes at 37°C. […] Next, a final wash was performed and 90 μL of 5-5’-tetramethylbenzidine (TMB) substrate solution was added and the color development was monitored and quantified after the addition of sulfuric acid solution. The absorbance was measured spectrophotometrically at 450 nm by using microplate spectrophotometer (Labsystem Multiskan MS). […] The concentration of VIP in the samples was determined by comparing the optical density of the samples to the standard curve. […]

Compound: CC[C@H](C)[C@H](NC(=O)[C@H](CO)NC(=O)[C@H](CC(N)=O)NC(=O)[C@H](CC(C)C)NC(=O)[C@H](Cc1ccc(O)cc1)NC(=O)[C@H](CCCCN)NC(=O)[C@H](CCCCN)NC(=O)[C@@H](NC(=O)[C@H](C)NC(=O)[C@H](CCSC)NC(=O)[C@H](CCC(N)=O)NC(=O)[C@H](CCCCN)NC(=O)[C@H](CCCN=C(N)N)NC(=O)[C@H](CC(C)C)NC(=O)[C@H](CCCN=C(N)N)NC(=O)[C@@H](NC(=O)[C@H](Cc1ccc(O)cc1)NC(=O)[C@H](CC(N)=O)NC(=O)[C@H](CC(=O)O)NC(=O)[C@@H](NC(=O)[C@H](Cc1ccccc1)NC(=O)[C@@H](NC(=O)[C@H](C)NC(=O)[C@H](CC(=O)O)NC(=O)[C@H](CO)NC(=O)[C@@H](N)Cc1c[nH]cn1)C(C)C)[C@@H](C)O)[C@@H](C)O)C(C)C)C(=O)N[C@@H](CC(C)C)C(=O)N[C@@H](CC(N)=O)C(N)=O [VIP, Vasoactive intestinal peptide]
- VIP concentration in follicular fluid over time (biological stability): significant reduction
